{"source": "paper PMC4580987", "about": "“Catalytic site inhibition of insulin-degrading enzyme by a small molecule induces glucose intolerance in mice” (Nature Communications, 2015)", "key": {"[1]": {"target": "T1, Recombinant human MMP-1 (Homo sapiens, UniProt P03956)", "T1 construct": "host or cells: E. coli", "T1 sequence (P03956 100-469)": "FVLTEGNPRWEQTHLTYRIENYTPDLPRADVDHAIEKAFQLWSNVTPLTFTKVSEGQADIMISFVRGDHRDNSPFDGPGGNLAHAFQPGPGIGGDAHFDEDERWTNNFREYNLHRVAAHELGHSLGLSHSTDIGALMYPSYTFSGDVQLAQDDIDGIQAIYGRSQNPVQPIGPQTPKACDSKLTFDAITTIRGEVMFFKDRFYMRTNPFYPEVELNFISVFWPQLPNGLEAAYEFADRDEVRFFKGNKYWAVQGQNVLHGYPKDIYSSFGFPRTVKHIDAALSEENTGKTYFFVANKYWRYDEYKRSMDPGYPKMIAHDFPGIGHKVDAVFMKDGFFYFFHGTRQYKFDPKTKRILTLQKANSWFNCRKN", "assay": "Matrix metalloprotease 1 inhibition (CEREP)", "type": "biochemical", "conditions": "means of two experiments minimum, s.d.±10%; read-out: Selectivity IC50 hMMP-1", "description": "Briefly, human NEP (R&D Systems; 200 ng ml^−1) was incubated 10 min at room temperature with compound in Hepes 50 mM, NaCl 100 mM, pH 7.4 and the enzymatic reaction started by adding the substrate (final concentration 200 μM). […] Briefly, human ACE (R&D Systems) was incubated 10 min at room temperature with compound in Tris 50 mM 1% NaCl pH 7.4 and the enzymatic reaction is started by adding the substrate (final concentration 300 μM). […] In vitro activity was assayed at CEREP.SA as follows."}, "[2]": {"assay": "Microsomal stability", "type": "in vitro ADME", "conditions": "male, CD-1, pH 7.4, mouse liver microsomes, read-out: Microsomal stability m (t1/2)", "description": "Male mouse (CD-1) liver microsomes (BD Gentest) were used. All incubations were performed in duplicate in a shaking water bath at 37 °C. The incubation mixtures contained 1 μM compound with 1% methanol used as a vehicle, mouse liver microsomes (0.6 mg of microsomal protein per mL), 5 mM MgCl2, 1 mM NADP, 5 mM glucose 6-phosphate, 0.4 U ml^−1 glucose 6-phosphate dehydrogenase, and 50 mM potassium phosphate buffer (pH 7.4) in a final volume of 1.5 ml. Samples were taken at 5, 10, 20, 30 and 40 min after microsome addition, and reactions stopped by adding ice-cold acetonitrile containing 1 μM internal standard (four volumes). Centrifugation of the samples for 10 min at 10,000g and 4 °C allowed to pellet precipitated microsomal proteins, and supernatant was subjected LC−MS/MS analysis, in acetonitrile containing 1 μM internal standard. Each compound was quantified by converting the corresponding analyte/internal standard peak area ratios to percentage drug remaining, using the initial ratio values in control incubations as 100%. Propranolol, known as a high hepatic clearance drug in rodents, was used as a quality-control compound for the microsomal incubations. […] The slope of the linear regression from log percentage remaining versus incubation time relationships (-k) was used in the conversion to in vitro t1/2 values by: t1/2=−0.693/k."}, "[3]": {"target": "T2, hIDE (Homo sapiens, UniProt P14735)", "T2 construct": "made in house", "T2 sequence (P14735 1-1019)": "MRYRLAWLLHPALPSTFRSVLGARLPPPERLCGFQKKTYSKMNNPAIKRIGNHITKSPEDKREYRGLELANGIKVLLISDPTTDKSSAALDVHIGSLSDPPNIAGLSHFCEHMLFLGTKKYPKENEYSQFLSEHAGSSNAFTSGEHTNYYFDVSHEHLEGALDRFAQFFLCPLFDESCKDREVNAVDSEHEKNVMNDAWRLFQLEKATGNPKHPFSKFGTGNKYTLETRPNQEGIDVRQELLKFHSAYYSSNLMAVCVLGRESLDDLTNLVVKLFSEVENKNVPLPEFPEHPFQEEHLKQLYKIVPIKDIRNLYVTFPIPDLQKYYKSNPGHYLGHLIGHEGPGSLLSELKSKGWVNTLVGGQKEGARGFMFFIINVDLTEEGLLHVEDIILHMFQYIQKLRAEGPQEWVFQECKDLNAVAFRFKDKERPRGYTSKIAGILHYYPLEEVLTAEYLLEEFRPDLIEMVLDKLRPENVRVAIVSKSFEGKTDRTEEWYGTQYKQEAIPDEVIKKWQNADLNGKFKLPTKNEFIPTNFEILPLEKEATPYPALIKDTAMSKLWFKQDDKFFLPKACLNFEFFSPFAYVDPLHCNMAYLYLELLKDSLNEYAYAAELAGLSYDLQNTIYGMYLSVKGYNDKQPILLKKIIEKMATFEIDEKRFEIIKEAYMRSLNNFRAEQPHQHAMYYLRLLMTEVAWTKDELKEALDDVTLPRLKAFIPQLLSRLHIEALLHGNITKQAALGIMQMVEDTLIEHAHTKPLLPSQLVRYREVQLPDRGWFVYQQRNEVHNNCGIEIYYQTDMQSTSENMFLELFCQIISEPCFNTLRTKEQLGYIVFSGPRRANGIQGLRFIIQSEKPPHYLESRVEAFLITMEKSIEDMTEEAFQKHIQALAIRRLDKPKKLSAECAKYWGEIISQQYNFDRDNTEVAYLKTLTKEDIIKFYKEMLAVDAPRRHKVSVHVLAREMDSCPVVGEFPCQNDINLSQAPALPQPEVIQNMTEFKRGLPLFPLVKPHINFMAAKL", "assay": "Small-angle X-ray scattering (SAXS) of hIDE conformation", "description": "SAXS data were collected at the APS 18-ID (BioCAT) with the Mar 165 CCD detector at room temperature (24 °C). The incident X-ray wavelength is 1.033 Å. hIDE was purified as described before. After 2 gel-filtration, hIDE was concentrated and dialysis against 20 mM Hepes, pH 7.2, 100 mM NaCl. […] The data reducing and all data processing were carried out using ATSAS. P(r) function was calculated with GNOM[44], and SAXS data fitting was performed with CRYSOL[45]."}}}
{"compound": "O=C(C[C@@H](Cc1ccc2ccccc2c1)n1cc(CNC(=O)c2ccc(F)cc2)nn1)NO", "note": "[Compound 1]", "values": [{"measurement": "IC50", "setting": "[1]", "result": 10, "unit": "µM"}, {"measurement": "half-life at 1 μM", "setting": "[2]", "result": 20, "unit": "min"}, {"measurement": "radius of gyration (Rg) of IDE with compound", "setting": "[3]; 53.1 Å without compound", "result": 47.6, "unit": "Å"}, {"measurement": "Dmax of IDE with compound", "setting": "[3]; 180 Å without compound", "result": 160, "unit": "Å"}, {"measurement": "fraction of IDE in the open conformation with compound", "setting": "[3]; ∼63% open in the absence of compound, fit of SAXS profile", "result": "~16", "unit": "%"}]}
